Patent publication US9370522B2, “Heterocyclic compounds for the inhibition of PASK” (BioEnergenix, LLC, priority 2009, dated 2016)

Biological target: T1, PASK (UniProt #Q96RG2; human recombinant N-terminal GST tagged construct, residues 879-1323) (Homo sapiens, UniProt Q96RG2)
T1 construct: N-terminal GST tagged construct, residues 879-1323; GST (N); made in house; host or cells: insect cells
Experiment: 33P-ATP radiometric PASK kinase assay (P81 phosphocellulose, scintillation counting)
Format: biochemical
Conditions: Table 2, Myelin Basic Protein 20 μM, 120 min room temperature, average of all trials, read-out: IC50 Kinase Domain
Method: Purified PASK (UniProt #Q96RG2; human recombinant N-terminal GST tagged construct, residues 879-1323) from insect cells (final concentration 5 nM) is added to freshly prepared Base Reaction Buffer containing 20 mM Hepes (pH 7.5), 10 mM MgCl2, 1 mM EGTA, 0.02% Brij35, 0.02 mg/ml BSA, 0.1 mM Na3VO4, 2 mM DTT, 1% DMSO and Myelin Basic Protein (20 μM final). Test compounds in DMSO are then added and the mixture, followed by delivery of ^33P-ATP (specific activity 0.01 μCi/μl final) to initiate the reaction. The kinase reaction is incubated for 120 min at room temperature. The entire reaction mixture is washed through onto a P81 Phosphocellulose paper and washed three times for 10 minutes in 75 mM phosphoric acid and once in methanol prior to drying and scintillation counting. When the assay was repeated for a given compound, the activity data is based on the average of all trials.

T1 sequence (Q96RG2 879-1323, stated change not applied): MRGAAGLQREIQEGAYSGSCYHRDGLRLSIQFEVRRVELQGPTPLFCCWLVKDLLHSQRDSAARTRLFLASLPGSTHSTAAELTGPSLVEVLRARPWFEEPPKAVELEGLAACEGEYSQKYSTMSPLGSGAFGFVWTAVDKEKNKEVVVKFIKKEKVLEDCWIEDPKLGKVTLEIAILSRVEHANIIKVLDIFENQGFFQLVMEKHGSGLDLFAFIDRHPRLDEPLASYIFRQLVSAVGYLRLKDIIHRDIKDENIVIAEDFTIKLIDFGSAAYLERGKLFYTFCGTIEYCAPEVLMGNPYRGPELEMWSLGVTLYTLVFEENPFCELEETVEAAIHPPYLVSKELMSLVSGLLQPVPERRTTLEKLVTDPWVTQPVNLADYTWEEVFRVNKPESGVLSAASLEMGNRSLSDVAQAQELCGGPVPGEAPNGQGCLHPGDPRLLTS

SMILES	IC50
Cc1nc2cc(C(=O)O)ccc2nc1-c1ccccc1 [Example 14, 3-Methyl-2-phenylquinoxaline-6-carboxylic acid]	≥ 10 µM
O=C(O)c1ccc2nc(-c3ccccc3)c(-c3ccccc3-c3ccccc3)nc2c1 [Example 24, 3-(Biphenyl-2-yl)-2-phenylquinoxaline-6-carboxylic acid]	≥ 10 µM
O=C(O)c1cc2nc(-c3ccc(Cl)cc3)c(-c3ccc(Cl)cc3)nc2cc1O [Example 26, 2,3-Bis(4-chlorophenyl)-7-hydroxyquinoxaline-6-carboxylic acid]	≥ 10 µM
O=C(O)c1cc2nc(-c3cccc(O)c3)c(-c3cccc(O)c3)nc2cc1O [Example 29, 7-Hydroxy-2,3-bis(3-hydroxyphenyl)quinoxaline-6-carboxylic acid]	≥ 10 µM
O=C(O)c1ccc(-c2nc3cc(C(=O)O)ccc3nc2-c2ccccc2)cc1 [Example 35, 3-(4-Carboxyphenyl)-2-phenylquinoxaline-6-carboxylic acid]	≥ 10 µM
O=C(O)c1ccc2nc(-c3ccccc3)c(-c3cccc(F)c3)nc2c1 [Example 38, 3-(3-Fluorophenyl)-2-phenylquinoxaline-6-carboxylic acid]	≤ 10 µM
Cc1ccccc1-c1nc2cc(C(=O)O)ccc2nc1-c1ccccc1 [Example 39, 2-Phenyl-3-o-tolylquinoxaline-6-carboxylic acid]	≤ 10 µM
Cc1cccc(-c2nc3cc(C(=O)O)ccc3nc2-c2ccccc2)c1 [Example 40, 2-Phenyl-3-m-tolylquinoxaline-6-carboxylic acid]	≤ 10 µM
O=C(O)c1ccc2nc(-c3ccccc3)c(-c3ccc([N+](=O)[O-])cc3)nc2c1 [Example 41, 3-(4-Nitrophenyl)-2-phenylquinoxaline-6-carboxylic acid]	≤ 10 µM
O=C(O)c1ccc2nc(-c3ccccc3)c(-c3ccoc3)nc2c1 [Example 42, 3-(Furan-3-yl)-2-phenylquinoxaline-6-carboxylic acid]	≤ 10 µM
O=C(O)c1ccc2nc(-c3ccccc3)c(-c3ccsc3)nc2c1 [Example 43, 2-Phenyl-3-(thiophen-3-yl)quinoxaline-6-carboxylic acid]	≤ 10 µM
O=C(O)c1ccc2nc(-c3ccccc3)c(-c3ccc(O)cc3)nc2c1 [Example 44, 3-(4-Hydroxyphenyl)-2-phenylquinoxaline-6-carboxylic acid]	≤ 10 µM
COc1ccc(-c2nc3cc(C(=O)O)ccc3nc2-c2ccccc2)c(OC)c1 [Example 45, 3-(2,4-Dimethoxyphenyl)-2-phenylquinoxaline-6-carboxylic acid]	≤ 10 µM
O=C(O)c1ccc2nc(-c3ccccc3)c(-c3cccc(O)c3)nc2c1 [Example 46, 3-(3-Hydroxyphenyl)-2-phenylquinoxaline-6-carboxylic acid]	≤ 10 µM
O=C(O)c1ccc2nc(-c3ccccc3)c(-c3ccc(-c4ccccc4)cc3)nc2c1 [Example 47, 2-Phenyl-3-(4-phenyl-phenyl)quinoxaline-6-carboxylic acid]	≤ 10 µM
CCc1nc2cc(C(=O)O)ccc2nc1-c1ccccc1 [Example 48, 3-Ethyl-2-phenylquinoxaline-6-carboxylic acid]	≥ 10 µM

Results, then the compound that gave them:

IC50	SMILES
≤ 10 µM	O=C(O)c1ccc2nc(-c3ccco3)c(-c3ccccc3)nc2c1 [Example 12, 2-(Furan-2-yl)-3-phenylquinoxaline-6-carboxylic acid]
≤ 10 µM	O=C(O)c1ccc2nc(-c3ccccc3)c(-c3ccc(C(F)(F)F)cc3)nc2c1 [Example 13, 2-Phenyl-3-(4-(trifluoromethyl)phenyl)quinoxaline-6-carboxylic acid]
≤ 10 µM	Cc1ccc(-c2nc3cc(C(=O)O)ccc3nc2-c2ccccc2)cc1 [Example 15, 2-Phenyl-3-p-tolylquinoxaline-6-carboxylic acid]
≤ 10 µM	CCOc1ccc(-c2nc3cc(C(=O)O)ccc3nc2-c2ccccc2)cc1 [Example 16, 3-(4-Ethoxyphenyl)-2-phenylquinoxaline-6-carboxylic acid]
≤ 10 µM	COc1ccc(-c2nc3cc(C(=O)O)ccc3nc2-c2ccccc2)cc1OC [Example 17, 3-(3,4-Dimethoxyphenyl)-2-phenylquinoxaline-6-carboxylic acid]
≤ 10 µM	O=C(O)c1ccc2nc(-c3ccccc3)c(-c3ccc4ccccc4c3)nc2c1 [Example 18, 3-(Naphthalen-2-yl)-2-phenylquinoxaline-6-carboxylic acid]
≤ 10 µM	O=C(O)c1ccc2nc(-c3ccccc3)c(-c3cccc4ccccc34)nc2c1 [Example 19, 3-(Naphthalene-1-yl)-2-phenylquinoxaline-6-carboxylic acid]
≤ 10 µM	O=C(O)c1ccc2nc(-c3ccccc3)c(-c3ccc4c(c3)OCO4)nc2c1 [Example 20, 3-(Benzo[d][1,3]dioxol-5-yl)-2-phenylquinoxaline-6-carboxylic acid]
≤ 10 µM	O=C(O)c1ccc2nc(-c3ccccc3)c(-c3ccncc3)nc2c1 [Example 21, 2-Phenyl-3-(pyridin-4-yl)quinoxaline-6-carboxylic acid]
≤ 10 µM	N#Cc1ccc(-c2nc3cc(C(=O)O)ccc3nc2-c2ccccc2)cc1 [Example 22, 3-(4-Cyanophenyl)-2-phenylquinoxaline-6-carboxylic acid]
≤ 10 µM	COc1ccc(-c2nc3cc(C(=O)O)ccc3nc2-c2ccccc2)cc1 [Example 23, 3-(4-Methoxyphenyl)-2-phenylquinoxaline-6-carboxylic acid]
≤ 10 µM	O=C(O)c1cc2nc(-c3ccc(F)cc3)c(-c3ccc(F)cc3)nc2cc1O [Example 25, 2,3-Bis(4-fluorophenyl)-7-hydroxyquinoxaline-6-carboxylic acid]
≤ 10 µM	COc1ccc(-c2nc3cc(O)c(C(=O)O)cc3nc2-c2ccc(OC)cc2)cc1 [Example 27, 7-Hydroxy-2,3-bis(4-methoxyphenyl)quinoxaline-6-carboxylic acid]
≤ 10 µM	O=C(O)c1cc2nc(-c3ccc(O)cc3)c(-c3ccc(O)cc3)nc2cc1O [Example 28, 7-Hydroxy-2,3-bis(4-hydroxyphenyl)quinoxaline-6-carboxylic acid]
≤ 10 µM	O=C(O)c1ccc2nc(-c3ccccc3)c(-c3ccc(Cl)cc3)nc2c1 [Example 30, 3-(4-Chlorophenyl)-2-phenylquinoxaline-6-carboxylic acid]
≤ 10 µM	O=C(O)c1ccc2nc(-c3ccccc3)c(-c3ccc(Br)cc3)nc2c1 [Example 31, 3-(4-Bromophenyl)-2-phenylquinoxaline-6-carboxylic acid]
≤ 10 µM	CCc1ccc(-c2nc3cc(C(=O)O)ccc3nc2-c2ccccc2)cc1 [Example 32, 3-(4-Ethylphenyl)-2-phenylquinoxaline-6-carboxylic acid]
≤ 10 µM	O=C(O)c1ccc2nc(-c3ccccc3)c(-c3ccc(CO)cc3)nc2c1 [Example 34, 3-(4-(Hydroxymethyl)phenyl)-2-phenylquinoxaline-6-carboxylic acid]
≤ 10 µM	O=C(O)c1ccc2nc(-c3ccccc3)c(-c3ccc(OC(F)(F)F)cc3)nc2c1 [Example 36, 2-Phenyl-3-(4-(trifluoromethoxy)phenyl)quinoxaline-6-carboxylic acid]
≤ 10 µM	O=C(O)c1ccc2nc(-c3ccccc3)c(-c3cccc(OC(F)(F)F)c3)nc2c1 [Example 37, 2-Phenyl-3-(3-(trifluoromethoxy)phenyl)quinoxaline-6-carboxylic acid]
